Assay results reported in patent publication US9695155B2, “Herbicidal substituted pyrimidinyloxy benzene compounds” (E. I. DU PONT DE NEMOURS AND COMPANY, priority 2013, dated 2017).

Tests used:
chickweed = assay: Test D preemergence; assay type: in vivo, Stellaria media; conditions: for pest or weed control at 16 g/ha / pest or weed control at 31 g/ha / pest or weed control at 62 g/ha / pest or weed control at 125 g/ha: Stellaria media, pre-emergence; for pest or weed control at 16 g/ha: read-out: Plant response rating, Chickweed; for pest or weed control at 31 g/ha / pest or weed control at 62 g/ha / pest or weed control at 125 g/ha: scale 0-100, read-out: Plant response rating, Chickweed
From the text: (§1) Seeds of plant species selected from bluegrass (annual bluegrass, Poa annua), blackgrass (Alopecurus myosuroides), canarygrass (littleseed canarygrass, Phalaris minor), chickweed (common chickweed, Stellaria media), galium (catchweed bedstraw, Galium aparine), bromegrass, downy (downy bromegrass, Bromus tectorum), field poppy (Papaver rhoeas), field violet (Viola arvensis), green foxtail (Setaria viridis), deadnettle (henbit deadnettle, Lamium amplexicaule), Italian ryegrass (Lolium multiflorum), kochia (Kochia scoparia), lambsquarters (Chenopodium album), oilseed rape (Brassica napus), pigweed (Amaranthus retroflexus), chamomile (scentless chamomile, Matricaria inodora), Russian thistle (Salsola kali), speedwell (bird's-eye speedwell, Veronica persica), spring barley (Hordeum vulgare), spring wheat (Triticum aestivum), wild buckwheat (Polygonum convolvulus), wild mustard (Sinapis arvensis), wild oat (Avena fatua), wild radish (Raphanus raphanistrum), windgrass (Apera spica-venti), winter barley (Hordeum vulgare), and winter wheat (Triticum aestivum) were planted into a silt loam soil and treated preemergence with test chemicals formulated in a non-phytotoxic solvent mixture which included a surfactant.
(§2) At the same time, these species were planted in pots containing Redi-Earth® planting medium (Scotts Company, 14111 Scottslawn Road, Marysville, Ohio 43041) comprising spaghnum peat moss, vermiculite, wetting agent and starter nutrients and treated with postemergence applications of the test chemicals formulated in the same manner. Plants ranged in height from 2 to 18 cm (1- to 4-leaf stage). Treated plants and controls were maintained in a controlled growth environment for 7 to 21 days after which time all species were compared to controls and visually evaluated. Plant response ratings, summarized in Table D, are based on a scale of 0 to 100 where 0 is no effect and 100 is complete control. A dash (-) response means no test result.

spring wheat = assay: Test D preemergence; assay type: in vivo, Triticum aestivum; conditions: for plant injury at 16 g/ha / plant injury at 31 g/ha: read-out: Plant response rating, Wheat, Spring
From the text: as §1, §2

winter wheat = assay: Test D preemergence; assay type: in vivo, Triticum aestivum; conditions: for plant injury at 16 g/ha / plant injury at 31 g/ha: read-out: Plant response rating, Wheat, Winter
From the text: as §1, §2

wild mustard = assay: Test D preemergence; assay type: in vivo, Sinapis arvensis; conditions: for pest or weed control at 16 g/ha / pest or weed control at 31 g/ha / pest or weed control at 62 g/ha / pest or weed control at 125 g/ha: Brassica, pre-emergence; for pest or weed control at 16 g/ha: read-out: Plant response rating, Mustard, Wild; for pest or weed control at 31 g/ha / pest or weed control at 62 g/ha / pest or weed control at 125 g/ha: scale 0-100, read-out: Plant response rating, Mustard, Wild
From the text: as §1, §2

galium = assay: Test D postemergence; assay type: in vivo, Galium aparine; conditions: for pest or weed control at 16 g/ha / pest or weed control at 31 g/ha / pest or weed control at 62 g/ha / pest or weed control at 125 g/ha: Galium, post-emergence; for pest or weed control at 16 g/ha: scale 0-100, read-out: Plant response rating, Galium; for pest or weed control at 31 g/ha / pest or weed control at 62 g/ha / pest or weed control at 125 g/ha: read-out: Plant response rating, Galium
From the text: as §1, §2

deadnettle = assay: Test D postemergence; assay type: in vivo, Lamium amplexicaule; conditions: for pest or weed control at 16 g/ha / pest or weed control at 31 g/ha / pest or weed control at 62 g/ha / pest or weed control at 125 g/ha: Lamium amplexicaule, post-emergence; for pest or weed control at 16 g/ha: scale 0-100, read-out: Plant response rating, Deadnettle; for pest or weed control at 31 g/ha / pest or weed control at 62 g/ha / pest or weed control at 125 g/ha: read-out: Plant response rating, Deadnettle
From the text: as §1, §2

kochia = assay: Test F preemergence; assay type: in vivo, Kochia scoparia; conditions: 21 days, scale 0 to 100
From the text: (§3) Seeds of plant species selected from bermudagrass (Cynodon dactylon), surinam grass (Brachiaria decumbens), large (Lg) crabgrass (Digitaria sanguinalis), crabgrass, naked (naked crabgrass, Digitaria nuda), foxtail, green (green foxtail, Setaria viridis), johnsongrass (Sorghum halepense), kochia (Kochia scoparia), morningglory (pitted morningglory, Ipomoea lacunosa), nutsedge, purple (purple nutsedge, Cyperus rotundus), ragweed (common ragweed, Ambrosia elatior), mustard, black (black mustard, Brassica nigra), guineagrass (Panicum maximum), dallisgrass (Paspalum dilatatum), barnyardgrass (Echinochloa crus-galli), sandbur (southern sandbur, Cenchrus echinatus), sowthistle (common sowthistle, Sonchus oleraceous), Italian ryegrass (Lolium multiflorum), signalgrass (broadleaf signalgrass, Brachiaria platyphylla), dayflower (Virginia (VA) dayflower, Commelina virginica), bluegrass (annual bluegrass, Poa annua), quackgrass (Elytrigia repens), mallow (common mallow, Malva sylvestris), buckwheat, wild (wild buckwheat, Polygonum convolvulus), leafy spurge (Euphorbia esula), chickweed (common chickweed, Stellaria media), wild poinsettia (Euphorbia heterophylla), and pigweed (Amaranthus retroflexus) were planted into a blend of loam soil and sand and treated preemergence with test chemicals formulated in a non-phytotoxic solvent mixture which included a surfactant.
(§4) Treated plants and controls were maintained in a greenhouse for 21 days, after which time all species were compared to controls and visually evaluated. Plant response ratings, summarized in Table F, are based on a scale of 0 to 100 where 0 is no effect and 100 is complete control. A dash (-) response means no test result.

sandbur = assay: Test F preemergence; assay type: in vivo, Cenchrus echinatus; conditions: 21 days, scale 0 to 100
From the text: as §3, §4

[1] = 16 g ai/ha, scale 0 (no effect) to 100 (complete control)
[2] = Triticum aestivum, pre-emergence, 16 g ai/ha, scale 0 (no effect) to 100 (complete control)
[3] = Triticum aestivum, pre-emergence, 31 g ai/ha, scale 0 (no effect) to 100 (complete control)
[4] = Triticum aestivum, pre-emergence, 125 g ai/ha, scale 0-100, read-out: Plant response rating, Wheat, Spring
[5] = Triticum aestivum, pre-emergence, 125 g ai/ha, scale 0-100, read-out: Plant response rating, Wheat, Winter
[6] = 31 g ai/ha, scale 0 to 100 (0 no effect, 100 complete control)
[7] = 62 g ai/ha, scale 0 to 100 (0 no effect, 100 complete control)
[8] = 125 g ai/ha, scale 0 to 100 (0 no effect, 100 complete control)
[9] = 31 g ai/ha, scale 0 (no effect) to 100 (complete control)

Fc1cccc(Oc2ncc(Cl)cn2)c1-n1cc(C(F)F)nn1 [Compound 141, 5-chloro-2-[2-[4-(difluoromethyl)-1H-1,2,3-triazol-1-yl]-3-fluorophenoxy]pyrimidine]
pest or weed control at 16 g/ha (chickweed; [1]): 100%
pest or weed control at 31 g/ha (chickweed; 31 g ai/ha): 100%
pest or weed control at 62 g/ha (chickweed; 62 g ai/ha): 100%
pest or weed control at 125 g/ha (chickweed; 125 g ai/ha): 100%
plant injury at 16 g/ha (spring wheat; [2]): 25%
plant injury at 31 g/ha (spring wheat; [3]): 30%
plant injury at 62 g/ha (spring wheat; Triticum aestivum, pre-emergence, 62 g ai/ha, scale 0-100, read-out: Plant response rating, Wheat, Spring): 65%
plant injury at 125 g/ha (spring wheat; [4]): 75%
plant injury at 16 g/ha (winter wheat; [2]): 15%
plant injury at 31 g/ha (winter wheat; [3]): 20%
plant injury at 62 g/ha (winter wheat; Triticum aestivum, pre-emergence, 62 g ai/ha, scale 0-100, read-out: Plant response rating, Wheat, Winter): 60%
plant injury at 125 g/ha (winter wheat; [5]): 60%
pest or weed control at 16 g/ha (wild mustard; [1]): 90%
pest or weed control at 31 g/ha (wild mustard; 31 g ai/ha): 100%
pest or weed control at 62 g/ha (wild mustard; 62 g ai/ha): 100%
pest or weed control at 125 g/ha (wild mustard; 125 g ai/ha): 100%
pest or weed control at 16 g/ha (galium; 16 g ai/ha): 95%
pest or weed control at 31 g/ha (galium; [6]): 98%
pest or weed control at 62 g/ha (galium; [7]): 98%
pest or weed control at 125 g/ha (galium; [8]): 98%
pest or weed control at 16 g/ha (deadnettle; 16 g ai/ha): 100%
pest or weed control at 31 g/ha (deadnettle; [6]): 100%
pest or weed control at 62 g/ha (deadnettle; [7]): 100%
pest or weed control at 125 g/ha (deadnettle; [8]): 100%

FCc1cccc(Oc2ncc(Cl)cn2)c1-n1cc(I)cn1 [Compound 245]
Plant response rating, Chickweed (chickweed; [1]): 55
Plant response rating, Chickweed (chickweed; 31 g ai/ha, scale 0-100): 85
Plant response rating, Chickweed (chickweed; 62 g ai/ha, scale 0-100): 100
Plant response rating, Chickweed (chickweed; 125 g ai/ha, scale 0-100): 100
Plant response rating, Wheat, Spring (spring wheat; [1]): 5
Plant response rating, Wheat, Spring (spring wheat; [9]): 10
Plant response rating, Wheat, Spring (spring wheat; 125 g ai/ha, scale 0-100): 20
Plant response rating, Wheat, Winter (winter wheat; [1]): 10
Plant response rating, Wheat, Winter (winter wheat; [9]): 15
Plant response rating, Wheat, Winter (winter wheat; 125 g ai/ha, scale 0-100): 30
Plant response rating, Mustard, Wild (wild mustard; [1]): 80
Plant response rating, Mustard, Wild (wild mustard; 31 g ai/ha, scale 0-100): 80
Plant response rating, Mustard, Wild (wild mustard; 62 g ai/ha, scale 0-100): 85
Plant response rating, Mustard, Wild (wild mustard; 125 g ai/ha, scale 0-100): 100
Plant response rating, Galium (galium; 16 g ai/ha, scale 0-100): 70
Plant response rating, Galium (galium; [6]): 75
Plant response rating, Galium (galium; [7]): 90
Plant response rating, Galium (galium; [8]): 98
Plant response rating, Deadnettle (deadnettle; 16 g ai/ha, scale 0-100): 100
Plant response rating, Deadnettle (deadnettle; [6]): 100
Plant response rating, Deadnettle (deadnettle; [7]): 100
Plant response rating, Deadnettle (deadnettle; [8]): 100

N#Cc1cccc(Oc2ncc(Cl)cn2)c1-n1cc(OC(F)F)cn1 [Compound 97]
Plant response rating, Kochia (kochia; 16 g ai/ha): 100
Plant response rating, Kochia (kochia; 31 g ai/ha): 100
Plant response rating, Kochia (kochia; 62 g ai/ha): 100
Plant response rating, Kochia (kochia; 125 g ai/ha): 100
Plant response rating, Kochia (kochia; 250 g ai/ha): 100
Plant response rating, Sandbur (sandbur; 16 g ai/ha): 0
Plant response rating, Sandbur (sandbur; 31 g ai/ha): 10
Plant response rating, Sandbur (sandbur; 62 g ai/ha): 25
Plant response rating, Sandbur (sandbur; 125 g ai/ha): 100
Plant response rating, Sandbur (sandbur; 250 g ai/ha): 100

N#Cc1cccc(Oc2ncc(Cl)cn2)c1-n1cc(OCC(F)(F)F)cn1 [Compound 274, 3-[(5-chloro-2-pyrimidinyl)oxy]-2-[4-(2,2,2-trifluoroethoxy)-1H-pyrazol-1-yl]benzonitrile]
pest or weed control at 16 g/ha (chickweed; [1]): 60%
pest or weed control at 31 g/ha (chickweed; 31 g ai/ha): 85%
pest or weed control at 62 g/ha (chickweed; 62 g ai/ha): 100%
pest or weed control at 125 g/ha (chickweed; 125 g ai/ha): 100%
plant injury at 16 g/ha (spring wheat; [2]): 0%
plant injury at 31 g/ha (spring wheat; [3]): 0%
plant injury at 125 g/ha (spring wheat; [4]): 55%
plant injury at 16 g/ha (winter wheat; [2]): 0%
plant injury at 31 g/ha (winter wheat; [3]): 0%
plant injury at 125 g/ha (winter wheat; [5]): 35%
pest or weed control at 16 g/ha (wild mustard; [1]): 15%
pest or weed control at 31 g/ha (wild mustard; 31 g ai/ha): 25%
pest or weed control at 62 g/ha (wild mustard; 62 g ai/ha): 95%
pest or weed control at 125 g/ha (wild mustard; 125 g ai/ha): 100%
pest or weed control at 16 g/ha (galium; 16 g ai/ha): 70%
pest or weed control at 31 g/ha (galium; [6]): 70%
pest or weed control at 62 g/ha (galium; [7]): 75%
pest or weed control at 125 g/ha (galium; [8]): 85%
pest or weed control at 16 g/ha (deadnettle; 16 g ai/ha): 50%
pest or weed control at 31 g/ha (deadnettle; [6]): 45%
pest or weed control at 62 g/ha (deadnettle; [7]): 60%
pest or weed control at 125 g/ha (deadnettle; [8]): 70%
Plant response rating, Kochia (kochia; 16 g ai/ha): 100
Plant response rating, Kochia (kochia; 31 g ai/ha): 100
Plant response rating, Kochia (kochia; 62 g ai/ha): 100
Plant response rating, Kochia (kochia; 125 g ai/ha): 100
Plant response rating, Kochia (kochia; 250 g ai/ha): 100
Plant response rating, Sandbur (sandbur; 16 g ai/ha): 5
Plant response rating, Sandbur (sandbur; 31 g ai/ha): 20
Plant response rating, Sandbur (sandbur; 62 g ai/ha): 70
Plant response rating, Sandbur (sandbur; 125 g ai/ha): 95
Plant response rating, Sandbur (sandbur; 250 g ai/ha): 100
